Reference: patent EP1342779A1, “Means and methods for manipulating hypersensitivity-like responses” (Fornix Biosciences N.V., priority 2002, dated 2003)

Key:
[1] = test system: Ig light chain; assay: Ig-LC-induced ear swelling after hapten challenge of mice passively sensitized with TNP-specific Ig-LC (inhibition by F991); type: in vivo
Excerpt: F991 is developed as an antagonist of Ig light chain. The working hypothesis for this compound is that it binds to Ig light chains and thereby prevents binding of light chains to their putative receptors. F991 is a 9-mer peptide derived from the endogenous protein uromodulin. The potency of F991 to inhibit Ig-LC induced cutaneous reactions (ear swelling responses) was studied. Our working hypothesis for this compound is that it is an antagonist of Ig-LC and binds to Ig-LC and thereby prevents binding of Ig-LC to their putative receptors. F991 was administered in different dosages, via various administration routes.
Indicated amounts of F991 per mouse were intravenously injected at 30 min before hapten challenge. At that same time point mice were injected (passively sensitized) with TNP-specific Ig-LC or vehicle (PBS). […]
Mice were i.v. sensitized with 2 µg TNP-specific Ig light chain at 30 min before ear challenge with TNP. Control mice were injected with PBS instead of Ig light chain. […]

[2] = test system: DNFB-sensitized mice; assay: Contact sensitivity after active sensitization with DNFB, ear swelling; type: in vivo; details: F991 topically on the ears 4 hours before challenge
Method: • A. F991 was prepared as an ointment in Cremor Cetomacrogolis FNA and topically applied on the ear at 4 hours before hapten challenge. Subsequently, mice were passively sensitized with 2 µg TNP-specific Ig-LC n at 30 min before and ear thickness was measured 2 hours after hapten challenge of the ears. […] Therefore F991 was applied on the back of the mice instead of at the site of hapten challenge (ear). Mice were again sensitized and challenged as described above. […] This means that epicutaneous treatment should be done at the site of challenge (Figure 14). • C. Stability of F991 in ointment To determine the stability of F991 in ointment, different preparations of F991 in Cremor Cetamacrogolis FNA were tested for their activity after storage for 2-3 months at room temperature and at 4 degrees Celsius. The different preparations were applied at the ear as described in A. and subsequently ear swelling was monitored after hapten challenge of Ig-LC-sensitized animals. […] Mice were sensitized with a low molecular weight compound DNFB on the skin and footpads (on day 0 and 1). […]
Topical treatment of DNFB-sensitized mice at 4 hours before hapten challenge results in complete inhibition of the development of contact sensitivity response as determined by earswelling at 2 and 24 hours after challenge.

[3] = test system: myelin oligodendrocyte glycoprotein (MOG)-induced experimental allergic encephalomyelitis (EAE); assay: MOG-induced experimental allergic encephalomyelitis (EAE), mouse model for MS; type: in vivo
Excerpt: If light chains were involved in the activation of mast cells in patients with MS, the prediction is that F991 may be of therapeutic interest in the treatment of MS. We tested if F991 was able to prevent of reduce development clinical signs in an established mouse model for MS, i.e. myelin oligodendrocyte glycoprotein (MOG)-induced experimental allergic encephalomyelitis (EAE). Mouse were sensitized with antigenic peptide 35-55 from MOG in complete freund adjuvant. At the day of sensitization and 3 days later, mice also received an injection with pertussis toxin. In general, 10-12 days after the start of sensitization mice develop clinical signs of MS, which can be scored in degree of paralysis (0=no paralysis, 1=tail flaccidity, 2=hind limb weakness, 3=hind limb paralysis, 4=forelimb paralysis or loss of ability to right supine, 5=death). To investigate if F991 is able to prevent development of clinical signs of MS, mice were daily injected with 50 µg F991/animal i.p. starting at day -1 until day 21. […] Control mice developed disease with a mean day of onset of 11.8 and a mean clinical score of 2.3. There was a significant difference in disease burden (mean cumulative EAE score) between the F991 (mean 4.2) treated group and the control group (mean 18.3). […] (Figure 17).

[4] = test system: Ig light chain; assay: Stability of F991 in ointment, read out as activity in the ear swelling test after storage; type: in vivo, mice; details: Cremor Cetamacrogolis FNA, stored 2-3 months at room temperature and at 4 degrees Celsius
Method: • A. F991 was prepared as an ointment in Cremor Cetomacrogolis FNA and topically applied on the ear at 4 hours before hapten challenge. Subsequently, mice were passively sensitized with 2 µg TNP-specific Ig-LC n at 30 min before and ear thickness was measured 2 hours after hapten challenge of the ears. […] Therefore F991 was applied on the back of the mice instead of at the site of hapten challenge (ear). Mice were again sensitized and challenged as described above. […] This means that epicutaneous treatment should be done at the site of challenge (Figure 14). • C. Stability of F991 in ointment To determine the stability of F991 in ointment, different preparations of F991 in Cremor Cetamacrogolis FNA were tested for their activity after storage for 2-3 months at room temperature and at 4 degrees Celsius. The different preparations were applied at the ear as described in A. and subsequently ear swelling was monitored after hapten challenge of Ig-LC-sensitized animals. […] Mice were sensitized with a low molecular weight compound DNFB on the skin and footpads (on day 0 and 1). 5 days after the start of sensitization and 4 hours before local challenge with hapten, mice were treated with F991 on the ears.

[5] = 50 µg F991/animal i.p. daily from day -1 until day 21

Question: Which results are given for “F991: 9-mer peptide derived from the endogenous protein uromodulin, developed as an antagonist of Ig light chain; sequence probably AHWSGHCCL”?
Answer: block of the Ig-LC -induced ear swelling ([1]; 2 µg per mouse (1.9 nmole) i.v. 30 min before hapten challenge, 2 hours after challenge): completely block; induction of an ear swelling response ([1]; 50 µg F991 intraperitoneally at 4 or 24 hours before hapten challenge): completely prevented; Ig-LC -induced ear swelling after hapten challenge ([1]; 50 µg F991 subcutaneously at 4 or 24 hours before hapten challenge): completely inhibited; systemic inhibition of the Ig-LC effects ([1]; F991 ointment applied on the back of the mice instead of the ear): does not result in systemic inhibition; inhibition of the ear swelling induced after hapten challenge ([1]; F991 ointment in Cremor Cetomacrogolis FNA applied on the ear 4 hours before hapten challenge, 2 hours after challenge): dose-dependent inhibition; inhibition of the ear swelling response ([1]; different amounts of F991 i.v. 30 min before hapten challenge, ear thickness 2 hours after challenge): dose-dependent inhibition; ear swelling, contact sensitivity ([2]; 2 hours after challenge): completely inhibited; ear swelling, contact sensitivity ([2]; 24 hours after challenge): completely inhibited; development of clinical signs of paralysis [3, 5]: completely prevented; disease burden (mean cumulative EAE score) [3, 5]: 4.2; clinical symptoms after termination of the treatment ([3]; termination of F991 at 21 days after sensitization): some minor clinical symptoms; stability of F991 in ointment (activity after storage) [4]: retained its activity
